{"source": "patent US8163702B2", "about": "“Treatment of melanoma” (SciClone Pharmaceuticals, Inc., priority 2006, dated 2012)", "tested_on": "murine B16 melanoma", "experiment": "Antitumor effect in murine B16 melanoma model, tumor size and tumor weight (Example 2)", "format": "in vivo, C57BL/6 mice", "details": "Day 12", "procedure": "As per aseptic tissue culture procedures, one vial of B16 melanoma cells (supplied by Cell Culture Center of CAMS) was thawed and centrifuged at 1000 rpm, 20-25° C. for 5 minutes. The cell pellets were suspended in 0.1-0.5 mL normal saline (NS) and subcutaneously injected into the right axilla of each mouse (approximately 1×10^6 cells/mouse). When the tumor diameter was 1 cm approximately (measured by vernier caliper), the animals were euthanized with CO2 asphyxiation and the tumor was excised. Tumor cells were suspended in normal saline as previously described and the cell adaptation cycle was repeated once.\nOn Day 0, 1×10^6 B16 cells in a volume of 0.1 mL normal saline were subcutaneously injected into the right axillary area of the mouse. The day of tumor inoculation was defined as Day 0.\nDosing was initiated on Day 1.\nObservations were recorded daily for mortality and moribundity. […] The tumors were excised, separated, and weighed.\nTumor volume was calculated using the following formula: Tumor Volume=Length×Width×Width/2 Tumor volume inhibition rate (IR) was calculated according to the formula: IR(TV)=(TVvehicle−TVdrug treated)/TVvehicle×100% TV is the tumor volume on the day of measurement.\nThe antitumor effect of the test article was also evaluated by tumor weight. The tumor weight of each mouse was recorded after euthanasia, and the inhibition rate of tumor weight was calculated according to the formula: IR(TW)=(Tumor weightvehicle−Tumor weightdrug treated)/Tumor weightvehicle×100%"}
{"smiles": "N[C@H](CCC(=O)N[C@@H](Cc1c[nH]c2ccccc12)C(=O)O)C(=O)O", "note": "[SCV-07, γ-D-glutamyl-L-tryptophan]", "values": [{"measurement": "Tumor measurements L", "setting": "mouse F2, SCV-07 5.0 mg/kg sc", "value": 1.0, "unit": "cm"}, {"measurement": "Tumor measurements W", "setting": "mouse F2, SCV-07 5.0 mg/kg sc", "value": 1.0, "unit": "cm"}, {"measurement": "Tumor volumes", "setting": "mouse F2, SCV-07 5.0 mg/kg sc", "value": 0.50, "unit": "cm^3"}, {"measurement": "Tumor measurements L", "setting": "mouse F3, SCV-07 0.01 mg/kg sc", "value": 0.1, "unit": "cm"}, {"measurement": "Tumor measurements W", "setting": "mouse F3, SCV-07 0.01 mg/kg sc", "value": 0.1, "unit": "cm"}, {"measurement": "Tumor volumes", "setting": "mouse F3, SCV-07 0.01 mg/kg sc", "value": "5E−04", "unit": "cm^3"}, {"measurement": "Tumor measurements L", "setting": "mouse F3, SCV-07 0.1 mg/kg sc", "value": 1.1, "unit": "cm"}, {"measurement": "Tumor measurements W", "setting": "mouse F3, SCV-07 0.1 mg/kg sc", "value": 1.0, "unit": "cm"}, {"measurement": "Tumor volumes", "setting": "mouse F3, SCV-07 0.1 mg/kg sc", "value": 0.55, "unit": "cm^3"}, {"measurement": "Tumor measurements L", "setting": "mouse F3, SCV-07 1.0 mg/kg sc", "value": 1.0, "unit": "cm"}, {"measurement": "Tumor measurements W", "setting": "mouse F3, SCV-07 1.0 mg/kg sc", "value": 1.0, "unit": "cm"}, {"measurement": "Tumor volumes", "setting": "mouse F3, SCV-07 1.0 mg/kg sc", "value": 0.50, "unit": "cm^3"}, {"measurement": "Tumor measurements L", "setting": "mouse F3, SCV-07 5.0 mg/kg sc", "value": 0.7, "unit": "cm"}, {"measurement": "Tumor measurements W", "setting": "mouse F3, SCV-07 5.0 mg/kg sc", "value": 0.7, "unit": "cm"}, {"measurement": "Tumor volumes", "setting": "mouse F3, SCV-07 5.0 mg/kg sc", "value": 0.17, "unit": "cm^3"}, {"measurement": "Tumor measurements L", "setting": "mouse F4, SCV-07 0.01 mg/kg sc", "value": 1.0, "unit": "cm"}, {"measurement": "Tumor measurements W", "setting": "mouse F4, SCV-07 0.01 mg/kg sc", "value": 1.0, "unit": "cm"}, {"measurement": "Tumor volumes", "setting": "mouse F4, SCV-07 0.01 mg/kg sc", "value": 0.50, "unit": "cm^3"}, {"measurement": "Tumor measurements L", "setting": "mouse F4, SCV-07 0.1 mg/kg sc", "value": 1.1, "unit": "cm"}, {"measurement": "Tumor measurements W", "setting": "mouse F4, SCV-07 0.1 mg/kg sc", "value": 1.1, "unit": "cm"}, {"measurement": "Tumor volumes", "setting": "mouse F4, SCV-07 0.1 mg/kg sc", "value": 0.67, "unit": "cm^3"}, {"measurement": "Tumor measurements L", "setting": "mouse F4, SCV-07 1.0 mg/kg sc", "value": 0.1, "unit": "cm"}, {"measurement": "Tumor measurements W", "setting": "mouse F4, SCV-07 1.0 mg/kg sc", "value": 0.1, "unit": "cm"}, {"measurement": "Tumor volumes", "setting": "mouse F4, SCV-07 1.0 mg/kg sc", "value": 0.00, "unit": "cm^3"}, {"measurement": "Tumor measurements L", "setting": "mouse F4, SCV-07 5.0 mg/kg sc", "value": 0.8, "unit": "cm"}, {"measurement": "Tumor measurements W", "setting": "mouse F4, SCV-07 5.0 mg/kg sc", "value": 0.8, "unit": "cm"}, {"measurement": "Tumor volumes", "setting": "mouse F4, SCV-07 5.0 mg/kg sc", "value": 0.26, "unit": "cm^3"}, {"measurement": "Tumor measurements L", "setting": "mouse F5, SCV-07 0.01 mg/kg sc", "value": 1.0, "unit": "cm"}, {"measurement": "Tumor measurements W", "setting": "mouse F5, SCV-07 0.01 mg/kg sc", "value": 0.9, "unit": "cm"}, {"measurement": "Tumor volumes", "setting": "mouse F5, SCV-07 0.01 mg/kg sc", "value": 0.41, "unit": "cm^3"}, {"measurement": "Tumor measurements L", "setting": "mouse F5, SCV-07 0.1 mg/kg sc", "value": 0.3, "unit": "cm"}, {"measurement": "Tumor measurements W", "setting": "mouse F5, SCV-07 0.1 mg/kg sc", "value": 0.3, "unit": "cm"}, {"measurement": "Tumor volumes", "setting": "mouse F5, SCV-07 0.1 mg/kg sc", "value": 0.01, "unit": "cm^3"}, {"measurement": "Tumor measurements L", "setting": "mouse F5, SCV-07 1.0 mg/kg sc", "value": 1.0, "unit": "cm"}, {"measurement": "Tumor measurements W", "setting": "mouse F5, SCV-07 1.0 mg/kg sc", "value": 1.0, "unit": "cm"}, {"measurement": "Tumor volumes", "setting": "mouse F5, SCV-07 1.0 mg/kg sc", "value": 0.50, "unit": "cm^3"}, {"measurement": "Tumor measurements L", "setting": "mouse F5, SCV-07 5.0 mg/kg sc", "value": 1.0, "unit": "cm"}, {"measurement": "Tumor measurements W", "setting": "mouse F5, SCV-07 5.0 mg/kg sc", "value": 1.0, "unit": "cm"}, {"measurement": "Tumor volumes", "setting": "mouse F5, SCV-07 5.0 mg/kg sc", "value": 0.50, "unit": "cm^3"}, {"measurement": "Tumor measurements L", "setting": "mouse M1, SCV-07 0.01 mg/kg sc", "value": 1.1, "unit": "cm"}, {"measurement": "Tumor measurements W", "setting": "mouse M1, SCV-07 0.01 mg/kg sc", "value": 1.1, "unit": "cm"}, {"measurement": "Tumor volumes", "setting": "mouse M1, SCV-07 0.01 mg/kg sc", "value": 0.67, "unit": "cm^3"}, {"measurement": "Tumor measurements L", "setting": "mouse M1, SCV-07 0.1 mg/kg sc", "value": 1.1, "unit": "cm"}, {"measurement": "Tumor measurements W", "setting": "mouse M1, SCV-07 0.1 mg/kg sc", "value": 1.1, "unit": "cm"}, {"measurement": "Tumor volumes", "setting": "mouse M1, SCV-07 0.1 mg/kg sc", "value": 0.67, "unit": "cm^3"}, {"measurement": "Tumor measurements L", "setting": "mouse M1, SCV-07 1.0 mg/kg sc", "value": 0.8, "unit": "cm"}, {"measurement": "Tumor measurements W", "setting": "mouse M1, SCV-07 1.0 mg/kg sc", "value": 0.7, "unit": "cm"}, {"measurement": "Tumor volumes", "setting": "mouse M1, SCV-07 1.0 mg/kg sc", "value": 0.20, "unit": "cm^3"}, {"measurement": "Tumor measurements L", "setting": "mouse M1, SCV-07 5.0 mg/kg sc", "value": 0.7, "unit": "cm"}, {"measurement": "Tumor measurements W", "setting": "mouse M1, SCV-07 5.0 mg/kg sc", "value": 0.7, "unit": "cm"}, {"measurement": "Tumor volumes", "setting": "mouse M1, SCV-07 5.0 mg/kg sc", "value": 0.17, "unit": "cm^3"}, {"measurement": "Tumor measurements L", "setting": "mouse M2, SCV-07 0.01 mg/kg sc", "value": 0.9, "unit": "cm"}, {"measurement": "Tumor measurements W", "setting": "mouse M2, SCV-07 0.01 mg/kg sc", "value": 0.9, "unit": "cm"}, {"measurement": "Tumor volumes", "setting": "mouse M2, SCV-07 0.01 mg/kg sc", "value": 0.36, "unit": "cm^3"}, {"measurement": "Tumor measurements L", "setting": "mouse M2, SCV-07 0.1 mg/kg sc", "value": 0.9, "unit": "cm"}, {"measurement": "Tumor measurements W", "setting": "mouse M2, SCV-07 0.1 mg/kg sc", "value": 0.9, "unit": "cm"}, {"measurement": "Tumor volumes", "setting": "mouse M2, SCV-07 0.1 mg/kg sc", "value": 0.36, "unit": "cm^3"}, {"measurement": "Tumor measurements L", "setting": "mouse M2, SCV-07 1.0 mg/kg sc", "value": 1.0, "unit": "cm"}, {"measurement": "Tumor measurements W", "setting": "mouse M2, SCV-07 1.0 mg/kg sc", "value": 1.0, "unit": "cm"}, {"measurement": "Tumor volumes", "setting": "mouse M2, SCV-07 1.0 mg/kg sc", "value": 0.50, "unit": "cm^3"}, {"measurement": "Tumor measurements L", "setting": "mouse M2, SCV-07 5.0 mg/kg sc", "value": 0.9, "unit": "cm"}, {"measurement": "Tumor measurements W", "setting": "mouse M2, SCV-07 5.0 mg/kg sc", "value": 0.9, "unit": "cm"}, {"measurement": "Tumor volumes", "setting": "mouse M2, SCV-07 5.0 mg/kg sc", "value": 0.36, "unit": "cm^3"}, {"measurement": "Tumor measurements L", "setting": "mouse M3, SCV-07 0.01 mg/kg sc", "value": 1.1, "unit": "cm"}, {"measurement": "Tumor measurements W", "setting": "mouse M3, SCV-07 0.01 mg/kg sc", "value": 0.9, "unit": "cm"}, {"measurement": "Tumor volumes", "setting": "mouse M3, SCV-07 0.01 mg/kg sc", "value": 0.45, "unit": "cm^3"}, {"measurement": "Tumor measurements L", "setting": "mouse M3, SCV-07 0.1 mg/kg sc", "value": 1.1, "unit": "cm"}, {"measurement": "Tumor measurements W", "setting": "mouse M3, SCV-07 0.1 mg/kg sc", "value": 1.1, "unit": "cm"}]}
